Measured values reported in patent publication US7211402B2, “Transcription factor coactivator protein, p/CIP” (The Regents of the University of California, priority 1997, dated 2007).
“Also recorded” adds a separate entry of the source.

Key:
[1] = tested on: RAR-dependent transcription; assay: Single cell microinjection assay, retinoic acid-dependent RARE/LacZ reporter; assay type: cell-based, rat; settings: for effect on retinoic acid-dependent gene activation by RAR: microinjection into Rat-1 cells
Method: (§1) Insulin-responsive Rat-1 fibroblasts were seeded on acid washed glass coverslips at subconfluent density and grown in MNE/F12 medium supplemented with 10% fetal bovine serum, gentamicin and methotrexate. Prior to the injection, the cells were rendered quiescent by incubation in serum-free medium for 24–36 hr. Plasmids were injected into the nuclei of cells at a final concentration of […]. Peptides were injected at a concentration of 200 mM. Either preimmune IgG of the appropriate species or antibodies directed against p/CIP, NCoA-1 or NCoA-2 were co-injected and allowed the unambiguous identification of the injected cells.
(§2) Microinjections were carried out using an Eppendorf semiautomated microinjection system mounted on an inverted Zeiss microscope. Approximately 1 hr after injection, the cells were stimulated, where indicated, with the appropriate ligand. In the case of rescue experiments, the cells were stimulated with ligand 6 hr after injection, to allow protein expression. After overnight incubation, the cells were fixed, then stained to detect injected IgG and β-galactosidase expression (Rose et al., J. Cell. Biol. 119:1405–1411 (1992), which is incorporated herein by reference; Kamei et al., supra, 1996). Injected cells were identified by staining with tetramethylrhodamine-conjugated donkey anti-rabbit IgG.

[2] = tested on: STAT-dependent (interferon γ-dependent) transcription; assay: Single cell microinjection assay, interferon γ-dependent GAS/LacZ reporter; assay type: cell-based, rat; settings: for effect on interferon γ-dependent (STAT) gene activation: microinjection into Rat-1 cells, GAS/LacZ reporter
Method: as §1, §2

liganded RAR and NCoA-1 = biological target: T1, liganded RAR and NCoA-1 (Homo sapiens, UniProt P10276); assay: In vitro competition assay, GST-RAR interaction with in vitro translated NCoA-1; assay type: binding; settings: excess peptide; 35S-labeled NCoA interaction domain fragment (aa 635–760); TTNPB 1 μM
T1 construct: GST-RAR (143–462), GST-ER(251–595) and GST-CBP(2058–2170) were generated as described; made in house; NCoA-1 was made by in vitro translation
T1 sequence (P10276 143-462): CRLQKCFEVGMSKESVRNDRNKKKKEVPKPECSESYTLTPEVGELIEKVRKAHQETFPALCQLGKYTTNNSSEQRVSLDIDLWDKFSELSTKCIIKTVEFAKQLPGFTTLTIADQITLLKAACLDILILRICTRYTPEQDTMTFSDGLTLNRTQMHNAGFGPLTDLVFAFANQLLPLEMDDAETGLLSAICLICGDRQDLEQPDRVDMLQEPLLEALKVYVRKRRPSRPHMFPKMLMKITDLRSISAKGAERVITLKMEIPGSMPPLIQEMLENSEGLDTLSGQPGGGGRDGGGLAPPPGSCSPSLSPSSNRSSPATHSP
Method: GST-RAR (143–462), GST-ER(251–595) and GST-CBP(2058–2170) were generated as described (Kamei et al., supra, 1996). 25 ul of GST SEPHAROSE beads containing 10 ug of the GST recombinant proteins were incubated in the presence or absence of the appropriate ligand for 30 min at room temperature, followed by the addition of 1 mg of cell extract and incubated for an additional 1 hr at 4° C. The complexes were then centrifuged, washed three times in NET-N buffer, separated by SDS-PAGE and western blotted with the appropriate antibodies (1 ug/ml). For co-immunoprecipitation assays, 1 mg of cell extract was incubated in the presence of 2 ug of p/CIP or NCoA antibody for 2 hr at 4° C. The immune complexes were precipitated with protein A SEPHAROSE (50% w/v). Protein complexes were separated by SDS-PAGE (Laemmle, Nature 227:680–685 (1970), which is incorporated herein by reference) and western blotted using 1 ug/ml of an anti-CBP/P300 monoclonal antibody (UBI). For in vitro competition assays, the indicated peptides were incubated with in vitro translated NCoA-1 prior to GST interaction with RAR.

[3] = biological target: T2, estrogen receptor ligand binding domain (yeast two-hybrid bait, liganded) (UniProt P03372 251-595); assay: yeast two-hybrid
T2 construct: Tested with estradiol (10^-6 M); also called liganded estrogen receptor (LBD); ER
T2 sequence (looked up): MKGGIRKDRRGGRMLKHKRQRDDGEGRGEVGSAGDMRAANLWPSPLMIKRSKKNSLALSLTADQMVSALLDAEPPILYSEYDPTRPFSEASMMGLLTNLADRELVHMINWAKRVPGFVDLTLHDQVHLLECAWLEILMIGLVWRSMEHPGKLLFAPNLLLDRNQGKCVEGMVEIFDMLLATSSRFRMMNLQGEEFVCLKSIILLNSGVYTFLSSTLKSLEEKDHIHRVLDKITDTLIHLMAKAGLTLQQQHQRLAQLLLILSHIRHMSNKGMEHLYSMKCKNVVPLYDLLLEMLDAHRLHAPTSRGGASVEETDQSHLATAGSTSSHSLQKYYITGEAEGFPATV
Text: EGY 48 cells were transformed with the lac Z reporter plasmid pSH 18–34 with the appropriate bait and prey vectors and plated out on -Ura-His-Trp medium containing 2% galactose.

[4] = tested on: SP-1 or CMV dependent transcription; assay: Single cell microinjection assay, control promoters lacking nuclear receptor response elements; assay type: cell-based; settings: microinjection into Rat-1 cells
Method: as §1, §2

[5] = tested on: TPA-dependent transcriptional activation; assay: Single cell microinjection assay, TPA-dependent reporter; assay type: cell-based; settings: microinjection into Rat-1 cells
Method: as §1, §2

[6] = simultaneous retinoic acid and interferon γ

Q: Which results are given for “CBP N′-P1: synthetic peptide of the N-terminal 22 amino acids of CBP; CBP N′-P1 (aa 1–19) (MAENLLDGPPNPKRAKLSS)”?
A: effect on retinoic acid-dependent gene activation by RAR [1]: without effect; effect on interferon γ inhibition of RAR-dependent transcription [1, 6]: relieved inhibition; also recorded: fully abolished; effect on interferon γ-dependent (STAT) gene activation [2]: markedly inhibited; effect on retinoic acid dependent inhibition of the GAS/LacZ reporter [2, 6]: had no effect

Q: For “LCD4: 19-mer peptide corresponding to NCoA-1 LCD4 (aa 907–926)”, which “effect on retinoic acid-dependent gene activation by RAR” value (shortened to “effect … by RAR”) [1] is on record?
A: The value was “can block”.

Q: What about the “effect … by RAR” value ([1]; listed as NCoA-1 LCD4) of the same molecule?
A: Its value is “inhibits”.

Q: And the “effect on interferon γ-dependent (STAT) gene activation” value [2]?
A: Its value is “does not impair”.

Q: “LCD 1: peptide corresponding to LCD 1 of NCoA-1; NCoA-1 LCD1 (aa 631–647) (SQTSHKLVQLLTTTAEQ; UniProt P70365 631-647, looked up, fragment)” was tested. Which “inhibition of interaction between liganded RAR and NCoA-1 in vitro” value (liganded RAR and NCoA-1) did it give?
A: Its value is “less effective”.

B1: NCoA-1 (aa 635-760) with LCD2 mutation (amino acids 695 to 698, HRLL->AAAA), yeast two-hybrid prey (other, UniProt P70365 635-760, looked up)
chain: HKLVQLLTTTAEQQLRHADIDTSCKDVLSCTGTSSSASSNPSGGTCPSSHSSLTERHKILAAAAQEGSPSDITTLSVEPEKKDSVPASTAVSVSGQSQGSASIKLELDAAKKKESKDHQLLRYLLD
notes: also called Mutations of the LCD2 motif (RLHRLL->RLAAAA); not shown: B42 fusion partner of prey vector pJG 4-5
Q: Does B1 bind [3]?
A: Result: no binding

B2: p/CIP (aa 947–1084): 137 amino acid region of p/CIP (aa 947–1084) containing the core CBP interaction domain (protein, UniProt O09000 947-1084, looked up, fragment)
chain: VPTLPLRSNRLPGARPSLQQQQQQQQQQQQQQQQQQQQQQQMLQMRTGEIPMGMGVNPYSPAVQSNQPGSWPEGMLSMEQGPHGSQNRPLLRNSLDDLLGPPSNAEGQSDERALLDQLHTFLSNTDATGLEEIDRALG
Q: B2 was tested. Which “effect … by RAR” value [1] did it give?
A: The value was “completely inhibited”.

Q: And the “effect … by RAR” value ([1]; listed as amino acids 947 to 1084 of p/CIP)?
A: The value was “inhibits”.

Q: And the “effect on SP-1 / CMV control promoters (non-CBP-dependent)” value [4]?
A: The value was “did not block”.

Q: What about the “effect on interferon γ-dependent (STAT) gene activation” value [2] of the same molecule?
A: The value was “blocked”.

Q: What about the “effect on TPA-dependent transcriptional activation” value [5] of the same molecule?
A: The value was “blocked”.
